Experimental data reported in patent US11236078B2, “Heterocyclic inhibitors of the sodium channel” (priority 2014, dated 2022).

Key:
Type in all cases: cell-based
rat Nav1.2 (rNav1.2) [1] = biological target: T1, rat Nav1.2 (rNav1.2) (Rattus norvegicus, UniProt P04775); test: rNav1.2 slow inactivation block, automated patchclamp; settings: HEK 293F cells stably expressing rNav1.2
T1 construct: expressed in transfected cells
Description: (§1) The generation of HEK 293F cell lines stably expressing human Nav1.7 (h Nav1.7), human Nav1.5 (hNav1.5) and rat Nav1.2 (r Nav1.2) was achieved by subcloning SCN9A, SCN5A, and SCN2A genes into inducible expression vectors followed by transfection into target cells using standard techniques. In the case of h Nav1.7, an expression vector encoding the human Navβ1 auxiliary subunit gene, SCN1B, was co-transfected with the expression vector bearing the SCN9A gene. Clones were selected using appropriate selection agents (0.3 mg/mL Zeocin and 0.8 mg/mL Geneticin) and maintained in Dulbecco's Modified Eagle medium, 10% fetal bovine serum, 1% non-essential amino acids to ˜80% confluence at 37° C. in a humidified incubator with 95% atmosphere and 5% CO2.
(§2) On the day of each experiment, cells that were grown to 80% confluence in a T75 flask were harvested for use on PatchXpress (Molecular Devices, CA, USA). Following a recovery period at 37° C. in a humidified incubator with 95% atmosphere and 5% CO2 in Dulbecco's Modified Eagle Medium, the media was replaced with an external recording solution containing (in mM): 90 TEACl, 50 NaCl, 1.8 CaCl2, 1 MgCl2, 10 HEPES, 10 glucose, adjusted to pH 7.4 with TEAOH and 300 mOsm with sucrose. The internal recording solution contained (in mM): 129 CsF, 2 MgCl2, 11 EGTA, 10 HEPES, 6 NaCl, 3 Na2ATP adjusted to pH 7.2 with CsOH and 280 mOsm with sucrose. The automated liquid handling facility of PatchXpress dispensed cells and added compound. Modulation of Nav1.7 channels by compounds was assessed by promoting the channels into the inactivated state using a conditioning voltage pulse of variable amplitude, followed by a brief hyperpolarizing pulse with a subsequent depolarized voltage step to measure the current amplitude in the presence and absence of compound.
(§3) In some cases, the potency of compounds was measured using either the Patchliner automated patch clamp platform (Nanion) or manual patch clamp techniques. Both approaches allowed the compounds to be characterized based upon the ability of a compound to modulate use- and/or state-dependence across human Nav1.7 (hNav1.7), human Nav1.5 (hNav1.5) and rat Nav1.2 (rNav1.2). The potency data is tabulated in Table 2 and is represented by six data fields. Three of the six fields represent potency data measured with the Patchliner automated platform under varying use- and state-dependent electrophysiology protocols similar to the PatchXpress protocols detailed above. For example, the second data column describes the potency of compounds in their ability to block 50% of Nav1.7 channels when the channel is repetitively activated by depolarizing voltage potentials to induce slow inactivation in approximately 50% of channels (Table 2: h Nav1.7: IC50 Slow Inactivation Block, Automated Patchclamp). The next three data fields describe the data generated from manual patchclamp electrophysiology measurements using similar methods to those employed for automated patchclamp studies.

rat Nav1.2 (rNav1.2) [2] = biological target: T1, rat Nav1.2 (rNav1.2); test: rNav1.2 slow inactivation block, manual patchclamp; settings: HEK 293F cells stably expressing rNav1.2
Description: as §1, §2, §3

human Nav1.7 (hNav1.7) [3] = biological target: T2, human Nav1.7 (hNav1.7) (Homo sapiens, UniProt Q15858); test: hNav1.7 slow inactivation block, automated patchclamp; settings: HEK 293F cells stably expressing hNav1.7, slow inactivation induced in approximately 50% of channels
T2 construct: expressed in transfected cells
T2 sequence (Q15858 whole entry): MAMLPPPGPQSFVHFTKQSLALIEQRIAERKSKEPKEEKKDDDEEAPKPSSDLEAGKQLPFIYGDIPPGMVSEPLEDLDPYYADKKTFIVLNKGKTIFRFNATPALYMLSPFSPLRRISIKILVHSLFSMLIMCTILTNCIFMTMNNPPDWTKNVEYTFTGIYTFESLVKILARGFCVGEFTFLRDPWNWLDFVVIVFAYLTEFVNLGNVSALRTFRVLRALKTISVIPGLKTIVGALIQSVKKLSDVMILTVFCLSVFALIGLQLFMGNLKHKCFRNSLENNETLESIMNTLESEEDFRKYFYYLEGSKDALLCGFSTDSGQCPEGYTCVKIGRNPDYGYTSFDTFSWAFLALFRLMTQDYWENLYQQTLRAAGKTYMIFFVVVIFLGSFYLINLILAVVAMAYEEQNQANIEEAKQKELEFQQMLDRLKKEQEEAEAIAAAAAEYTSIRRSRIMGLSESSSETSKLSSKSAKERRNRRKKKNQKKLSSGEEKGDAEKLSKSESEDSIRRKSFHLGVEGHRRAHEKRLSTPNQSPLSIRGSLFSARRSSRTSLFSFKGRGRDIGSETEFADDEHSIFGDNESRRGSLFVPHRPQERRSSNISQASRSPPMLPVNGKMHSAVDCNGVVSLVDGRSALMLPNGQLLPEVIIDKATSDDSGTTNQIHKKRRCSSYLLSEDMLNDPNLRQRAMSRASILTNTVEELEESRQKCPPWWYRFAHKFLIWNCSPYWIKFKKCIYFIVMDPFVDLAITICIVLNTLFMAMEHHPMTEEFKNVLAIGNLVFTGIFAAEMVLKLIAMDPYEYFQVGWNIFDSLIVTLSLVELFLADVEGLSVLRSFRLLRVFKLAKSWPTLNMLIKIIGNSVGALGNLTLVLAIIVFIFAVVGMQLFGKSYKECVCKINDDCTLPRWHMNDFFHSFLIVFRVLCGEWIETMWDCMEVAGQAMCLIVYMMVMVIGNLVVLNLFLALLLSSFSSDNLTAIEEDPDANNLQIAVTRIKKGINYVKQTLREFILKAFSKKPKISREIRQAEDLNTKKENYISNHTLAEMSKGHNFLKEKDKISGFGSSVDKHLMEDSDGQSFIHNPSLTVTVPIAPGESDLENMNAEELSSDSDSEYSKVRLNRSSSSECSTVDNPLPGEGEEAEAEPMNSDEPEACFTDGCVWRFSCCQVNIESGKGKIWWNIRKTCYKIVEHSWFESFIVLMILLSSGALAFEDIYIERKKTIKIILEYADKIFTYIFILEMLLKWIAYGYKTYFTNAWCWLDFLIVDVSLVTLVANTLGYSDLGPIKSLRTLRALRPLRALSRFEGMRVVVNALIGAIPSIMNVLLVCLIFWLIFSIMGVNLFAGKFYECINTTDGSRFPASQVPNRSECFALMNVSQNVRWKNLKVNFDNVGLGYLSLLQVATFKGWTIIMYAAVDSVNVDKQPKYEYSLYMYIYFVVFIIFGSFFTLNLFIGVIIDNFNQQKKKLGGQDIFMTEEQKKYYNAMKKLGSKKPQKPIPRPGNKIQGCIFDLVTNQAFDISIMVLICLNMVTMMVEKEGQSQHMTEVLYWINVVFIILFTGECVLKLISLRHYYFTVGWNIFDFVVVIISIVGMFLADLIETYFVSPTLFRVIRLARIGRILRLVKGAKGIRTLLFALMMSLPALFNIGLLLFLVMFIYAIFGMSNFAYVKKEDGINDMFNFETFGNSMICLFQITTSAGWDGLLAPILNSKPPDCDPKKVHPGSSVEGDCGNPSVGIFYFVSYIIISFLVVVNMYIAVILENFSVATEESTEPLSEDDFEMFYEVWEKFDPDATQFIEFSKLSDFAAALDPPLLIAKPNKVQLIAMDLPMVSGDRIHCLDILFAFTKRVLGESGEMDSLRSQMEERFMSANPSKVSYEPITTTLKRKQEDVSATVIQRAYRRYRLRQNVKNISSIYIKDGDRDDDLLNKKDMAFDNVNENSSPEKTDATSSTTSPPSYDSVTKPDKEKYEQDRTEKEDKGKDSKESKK
T2 sequence (Q07699 19-218 partner): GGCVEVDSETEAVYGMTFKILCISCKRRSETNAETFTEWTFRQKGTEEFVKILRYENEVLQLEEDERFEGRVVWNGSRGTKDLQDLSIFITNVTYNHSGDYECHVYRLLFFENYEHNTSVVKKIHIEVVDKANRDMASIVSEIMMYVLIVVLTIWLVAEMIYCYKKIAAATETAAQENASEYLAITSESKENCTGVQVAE
Description: as §1, §2, §3

human Nav1.7 (hNav1.7) [4] = biological target: T2, human Nav1.7 (hNav1.7); test: hNav1.7 slow inactivation block, manual patchclamp; settings: HEK 293F cells stably expressing hNav1.7, slow inactivation induced in approximately 50% of channels
Description: as §1, §2, §3

T1 sequence (P04775 whole entry): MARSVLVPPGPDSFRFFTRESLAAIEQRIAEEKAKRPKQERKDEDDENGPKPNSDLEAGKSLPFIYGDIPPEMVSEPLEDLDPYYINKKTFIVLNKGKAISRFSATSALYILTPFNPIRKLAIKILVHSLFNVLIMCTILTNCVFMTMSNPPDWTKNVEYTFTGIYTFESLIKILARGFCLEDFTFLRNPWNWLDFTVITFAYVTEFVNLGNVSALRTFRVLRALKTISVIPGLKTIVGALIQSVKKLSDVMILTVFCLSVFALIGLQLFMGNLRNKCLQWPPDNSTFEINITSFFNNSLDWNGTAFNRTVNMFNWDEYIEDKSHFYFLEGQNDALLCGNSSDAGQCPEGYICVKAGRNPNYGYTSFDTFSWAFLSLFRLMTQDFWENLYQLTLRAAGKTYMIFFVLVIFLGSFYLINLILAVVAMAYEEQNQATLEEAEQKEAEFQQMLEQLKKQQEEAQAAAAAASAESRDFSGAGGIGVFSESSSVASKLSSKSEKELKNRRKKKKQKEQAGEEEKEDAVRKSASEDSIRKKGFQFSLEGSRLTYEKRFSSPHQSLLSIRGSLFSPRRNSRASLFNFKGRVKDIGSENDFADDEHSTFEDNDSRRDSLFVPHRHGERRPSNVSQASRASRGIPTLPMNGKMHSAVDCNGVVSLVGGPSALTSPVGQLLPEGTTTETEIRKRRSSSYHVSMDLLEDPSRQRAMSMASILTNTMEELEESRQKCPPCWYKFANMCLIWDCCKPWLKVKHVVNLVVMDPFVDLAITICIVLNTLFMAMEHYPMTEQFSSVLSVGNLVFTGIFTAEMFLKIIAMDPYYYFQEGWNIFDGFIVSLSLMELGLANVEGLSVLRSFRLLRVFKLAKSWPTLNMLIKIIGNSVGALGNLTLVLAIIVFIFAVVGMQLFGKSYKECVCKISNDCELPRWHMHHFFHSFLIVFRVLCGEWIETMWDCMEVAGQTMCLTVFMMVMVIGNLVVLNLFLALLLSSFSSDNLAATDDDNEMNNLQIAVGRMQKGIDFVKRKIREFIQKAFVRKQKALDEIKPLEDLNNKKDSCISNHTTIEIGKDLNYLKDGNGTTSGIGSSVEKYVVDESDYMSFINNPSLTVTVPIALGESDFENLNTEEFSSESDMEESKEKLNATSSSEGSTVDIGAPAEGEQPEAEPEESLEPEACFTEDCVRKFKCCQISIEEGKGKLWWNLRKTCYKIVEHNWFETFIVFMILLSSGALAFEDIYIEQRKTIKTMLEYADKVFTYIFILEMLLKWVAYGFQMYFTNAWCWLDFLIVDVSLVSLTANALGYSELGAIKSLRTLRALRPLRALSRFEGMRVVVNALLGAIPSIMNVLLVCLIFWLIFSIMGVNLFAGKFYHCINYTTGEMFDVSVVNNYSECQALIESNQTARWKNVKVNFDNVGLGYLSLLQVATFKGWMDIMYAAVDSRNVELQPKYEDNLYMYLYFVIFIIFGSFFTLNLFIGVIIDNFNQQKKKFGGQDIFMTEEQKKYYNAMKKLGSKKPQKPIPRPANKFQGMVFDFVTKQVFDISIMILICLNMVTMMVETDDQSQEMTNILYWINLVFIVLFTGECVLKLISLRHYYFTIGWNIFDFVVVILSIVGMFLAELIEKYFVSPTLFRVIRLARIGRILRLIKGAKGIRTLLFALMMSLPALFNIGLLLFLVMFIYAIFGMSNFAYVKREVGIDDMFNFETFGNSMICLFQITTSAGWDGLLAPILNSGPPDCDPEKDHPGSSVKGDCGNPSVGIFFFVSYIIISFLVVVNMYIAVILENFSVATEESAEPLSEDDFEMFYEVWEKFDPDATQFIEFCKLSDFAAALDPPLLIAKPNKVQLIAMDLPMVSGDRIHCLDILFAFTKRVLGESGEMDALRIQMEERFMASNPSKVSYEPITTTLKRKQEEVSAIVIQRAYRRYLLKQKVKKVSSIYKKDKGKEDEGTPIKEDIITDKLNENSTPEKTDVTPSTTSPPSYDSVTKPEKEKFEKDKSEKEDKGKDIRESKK

IC50 (rat Nav1.2 (rNav1.2) [1]) [nM] | IC50 (rat Nav1.2 (rNav1.2) [2]) [nM] | IC50 (human Nav1.7 (hNav1.7) [3]) [nM] | IC50 (human Nav1.7 (hNav1.7) [4]) [nM] | SMILES
> 32000 | > 10000 | 21100 | – | O=S(=O)(Nc1ncns1)c1ccc(Oc2cc(C(F)(F)F)cc(C(F)(F)F)c2)c(Cl)c1 [Compound 16, 4-[3,5-bis(trifluoromethyl)phenoxy]-3-chloro-N-(1,2,4-thiadiazol-5-yl)benzene-1-sulfonamide]
> 32000 | > 10000 | ~37900 | ~3960 | O=S(=O)(Nc1ncns1)c1cc(F)c(Oc2cc(F)cc(F)c2)cc1F [Compound 28, 4-(3,5-difluorophenoxy)-2,5-difluoro-N-(1,2,4-thiadiazol-5-yl)benzene-1-sulfonamide]
> 32000 | > 10000 | 23600 | 3890 | NC(=O)c1cc(Oc2cc(F)c(S(=O)(=O)Nc3ncns3)cc2F)cc(C(F)(F)F)c1 [Compound 24, 3-{2,5-difluoro-4-[(1,2,4-thiadiazol-5-yl)sulfamoyl]phenoxy}-5-(trifluoromethyl)benzamide]
12300 | 176 | 5620 | 160 | CN1CCC[C@H]1C(=O)NCc1cccc(-c2cc(C(F)(F)F)cc(C(F)(F)F)c2)c1 [Compound 57, (2S)-N-({3-[3,5-bis(trifluoromethyl)phenyl]phenyl}methyl)-1-methylpyrrolidine-2-carboxamide]
2580 | 156 | 3610 | 162 | O=C(NCc1cc(-c2cc(C(F)(F)F)cc(C(F)(F)F)c2)cc(C(F)(F)F)c1)[C@H]1CCCN1 [Compound 55, (R)-N-((3′,5,5′-tris(trifluoromethyl)-[1,1′-biphenyl]-3-yl)methyl)pyrrolidine-2-carboxamide]
2750 | 733 | 2470 | 777 | CN(Cc1cccc(-c2cc(C(F)(F)F)cc(C(F)(F)F)c2)c1)C(=O)[C@@H]1CCCN1 [Compound 58, (2S)-N-({3-[3,5-bis(trifluoromethyl)phenyl]phenyl}methyl)-N-methylpyrrolidine-2-carboxamide]
~25200 | 11400 | ~36000 | 4840 | O=S(=O)(Nc1cccnn1)c1cc(F)c(Oc2cc(C(F)(F)F)cc(C(F)(F)F)c2)cc1F [Compound 30, 4-[3,5-bis(trifluoromethyl)phenoxy]-2,5-difluoro-N-(pyridazin-3-yl)benzene-1-sulfonamide]
~32000 | ~32000 | 18000 | 2170 | N#Cc1cc(Oc2cc(F)c(S(=O)(=O)Nc3ncns3)cc2F)cc(C(F)(F)F)c1 [Compound 27, 4-[3-cyano-5-(trifluoromethyl)phenoxy]-2,5-difluoro-N-(1,2,4-thiadiazol-5-yl)benzene-1-sulfonamide]
4260 | ~1320 | 5780 | ~1260 | CS(=O)(=O)NCc1cc(F)c(Oc2cc(C(F)(F)F)cc(C(F)(F)F)c2)cc1F [Compound 20, N-({4-[3,5-bis(trifluoromethyl)phenoxy]-2,5-difluorophenyl}methyl)methane-sulfonamide]
> 32000 | > 10000 | > 32000 | > 10000 | O=C(O)c1cc(Oc2cc(F)c(S(=O)(=O)Nc3ncns3)cc2F)cc(C(F)(F)F)c1 [Compound 23, 3-{2,5-difluoro-4-[(1,2,4-thiadiazol-5-yl)sulfamoyl]phenoxy}-5-(trifluoromethyl)benzoic]
> 32000 | > 10000 | ~37200 | 2130 | CCOC(=O)c1cc(Oc2cc(F)c(S(=O)(=O)Nc3ncns3)cc2F)cc(C(F)(F)F)c1 [Compound 26, ethyl 3-{2,5-difluoro-4-[(1,2,4-thiadiazol-5-yl)sulfamoyl]phenoxy}-5-(trifluoromethyl)benzoate]
1090 | 120 | 1880 | 225 | NC1(C(=O)NCc2cc(-c3cc(C(F)(F)F)cc(C(F)(F)F)c3)cc(C(F)(F)F)c2)CCCC1 [Compound 53, 1-amino-N-((3′,5,5′-tris(trifluoromethyl)-[1,1′-biphenyl]-3-yl)methyl)cyclopentane-1-carboxamide]
– | > 10000 | 19200 | ~10300 | CS(=O)(=O)NC(=O)c1cc(F)c(Oc2cc(C(F)(F)F)cc(C(F)(F)F)c2)cc1F [Compound 13, 4-[3,5-bis(trifluoromethyl)phenoxy]-2,5-difluoro-N-methanesulfonylbenzamide]
5660 | ~1250 | ~10200 | 1380 | O=C(NCc1cc(F)c(Oc2cc(C(F)(F)F)cc(C(F)(F)F)c2)cc1F)c1nncs1 [Compound 19, N-({4-[3,5-bis(trifluoromethyl)phenoxy]-2,5-difluorophenyl}methyl)-1,3,4-thiadiazole-2-carboxamide]
8730 | 166 | 8690 | 153 | O=C(NCc1cccc(-c2cc(C(F)(F)F)cc(C(F)(F)F)c2)c1)[C@@H]1CCCN1S(=O)(=O)Nc1ccccc1 [Compound 59, (2S)-N-({3-[3,5-bis(trifluoromethyl)phenyl]phenyl}methyl)-1-(phenylsulfamoyl)pyrrolidine-2-carboxamide]
– | > 10000 | > 32000 | > 10000 | N#Cc1cc(S(=O)(=O)Nc2nncs2)ccc1Oc1cc(C(F)(F)F)cc(C(F)(F)F)c1 [Compound 10, 4-[3,5-bis(trifluoromethyl)phenoxy]-3-cyano-N-(1,3,4-thiadiazol-2-yl)benzene-1-sulfonamide]
– | 744 | 5130 | 741 | O=C(NCc1cc(-c2cc(C(F)(F)F)cc(C(F)(F)F)c2)cc(C(F)(F)F)c1)[C@@H]1C[C@H](F)CN1 [Compound 54, (2S,4S)-4-fluoro-N-((3′,5,5′-tris(trifluoromethyl)-[1,1′-biphenyl]-3-yl)methyl)pyrrolidine-2-carboxamide]
> 32000 | – | > 32000 | > 3200 | O=C(Cc1cc(F)c(Oc2cc(C(F)(F)F)cc(C(F)(F)F)c2)cc1F)Nc1ncns1 [Compound 22, 2-{4-[3,5-bis(trifluoromethyl)phenoxy]-2,5-difluorophenyl}-N-(1,2,4-thiadiazol-5-yl)acetamide]
> 32000 | > 10000 | ~49000 | 4940 | N#Cc1cc(S(=O)(=O)Nc2ncns2)ccc1Oc1cc(C(F)(F)F)cc(C(F)(F)F)c1 [Compound 14, 4-[3,5-bis(trifluoromethyl)phenoxy]-3-cyano-N-(1,2,4-thiadiazol-5-yl)benzene-1-sulfonamide]
> 32000 | > 10000 | ~21100 | 942 | O=S(=O)(Nc1ncns1)c1cc(F)c(Oc2cc(F)cc(C(F)(F)F)c2)cc1F [Compound 32, 2,5-difluoro-4-(3-fluoro-5-(trifluoromethyl)phenoxy)-N-(1,2,4-thiadiazol-5-yl)benzenesulfonamide]
> 32000 | – | > 32000 | ~9760 | O=S(=O)(Nc1ccncn1)c1cc(F)c(Oc2cc(C(F)(F)F)cc(C(F)(F)F)c2)cc1F [Compound 18, 4-[3,5-bis(trifluoromethyl)phenoxy]-2,5-difluoro-N-(pyrimidin-4-yl)benzene-1-sulfonamide]
> 32000 | – | ~41800 | ~19200 | CNC(=O)c1cc(Oc2cc(F)c(S(=O)(=O)Nc3ncns3)cc2F)cc(C(F)(F)F)c1 [Compound 25, 3-{2,5-difluoro-4-[(1,2,4-thiadiazol-5-yl)sulfamoyl]phenoxy}-N-methyl-5-(trifluoromethyl)benzamide]
– | > 10000 | > 32000 | > 3200 | O=S(=O)(Nc1ncns1)c1ccc(Oc2cc(C(F)(F)F)cc(C(F)(F)F)c2)c(F)c1 [Compound 11, 4-[3,5-bis(trifluoromethyl)phenoxy]-3-fluoro-N-(1,2,4-thiadiazol-5-yl)benzene-1-sulfonamide]
